For orientation: EC50 means the concentration that produces a half-maximal response.

A short description of series [1]: Phase 1 multiple ascending dose PK in healthy subjects (plasma Compound 1 concentrations). It is filed as in vivo, human. The source says: Purpose: The purposes of this study was to assess the safety and tolerability of single and multiple oral doses of Compound 1, to characterize the pharmacokinetics (PK) of single and multiple oral doses of Compound 1, to characterize the pharmacodynamics (PD) of single and multiple oral doses of Compound 1, and to identify the recommended multiple oral dose level(s) of Compound 1 for future studies in patients. The study was a first-in-human, 2-part, single-center Phase 1, randomized, double-blind, placebo-controlled study in healthy male subjects.
PK: Plasma Compound 1 concentrations, Plasma PK parameters.
(§1) 6 groups of 10 healthy male subjects each to investigate the safety, tolerability, PK, and PD of multiple oral doses of Compound 1. Subjects in all groups received ascending multiple oral doses of Compound 1 or matching placebo once daily on Days 1 to 14. Dosing was conducted under fasted conditions on each dosing day. Patients in each group received multiple oral doses of 20, 40, 50, 80, 100, and 150 mg of Compound 1 once daily on days 1 to 14 of the study. Eight members of each group received Compound 1, and two members of each group received placebo.

The subject of another series is total bile acids. In words: Phase 1 MAD pharmacodynamics: total bile acids. The conditions noted are these: healthy subjects, 50-150 mg/day cohorts, day 14. It counts as in vivo, human. As for the experimental part:
(§2) PD: Plasma levels of 7-alpha-hydroxy-4-cholesten-3-one (C4), plasma levels of fibroblast growth factor 19 (FGF19), and levels of total bile acids (for Part B only).
as §1

For series [2], the system named is gamma-glutamyl transferase (GGT). In words: NASH clinical trial Part 1: GGT. It is filed as in vivo, human. The conditions noted are these: NASH patients, 50 mg daily. As for the experimental part:
(§3) Part 1: An open-label, uncontrolled, single-center study assessing 50 mg of Compound 1 treatment for 4 weeks; 10 subjects were enrolled.
(§4) Length of Study: Subjects enrolled in Part 1 participated in the study for approximately 12 weeks, which included a 4-week screening period, 4 weeks (28 days) for the treatment period, and 4 weeks for follow-up. Subjects enrolled in Part 2 will participate in the study for approximately 20 weeks, which includes an approximate 4-week screening period, 12 weeks (84 days) for the treatment period, and 4 weeks for follow-up. • Study Treatment (Part 1): Subjects enrolled in Part 1 received Compound 1 50 mg for 28 consecutive days. • Study Treatment (Part 2): Subjects enrolled in Part 2 will receive Compound 1 (80 mg or 50 mg) or matching placebo for 84 consecutive days.
The resulting percent changes from baseline for these biomarkers can be seen in FIG. 6A, FIG. 6B.

Series [3] has as its system fibroblast growth factor 19 (FGF19). In words: Phase 1 MAD pharmacodynamics: plasma FGF19. It counts as in vivo, human. The conditions noted are these: healthy subjects, multiple doses 20 mg to 150 mg. Here is the method:
as §2, §1

Series [4] in a line: NASH clinical trial Part 1: plasma levels of Compound 1. It is filed as in vivo, human. To be noted: 50 mg, healthy and NASH patients. Here is the method: as §3
Pharmacokinetic Assessments: Blood samples will be taken according to the PK sampling schedule.
as §4

For series [5], the system named is subjects with NASH (liver fat content). The series is described as follows: NASH clinical trial Part 1: hepatic fat. It is filed as in vivo, human. To be noted: NASH patients, 50 mg daily, after 28 days. Here is the method: Purpose: The purposes of this study was to evaluate the safety and tolerability of Compound 1 monotherapy in subjects with NASH, to characterize the pharmacokinetics (PK) of Compound 1, to characterize the pharmacodynamics (PD) of Compound 1 dose and response, to estimate the activity of Compound 1 using Magnetic Resonance Imaging-Proton Density Fat Fraction (MRI-PDFF) and NASH fibrosis biomarkers.
as §3
Length of Study: Subjects enrolled in Part 1 participated in the study for approximately 12 weeks, which included a 4-week screening period, 4 weeks (28 days) for the treatment period, and 4 weeks for follow-up. […]
The 10 patients with NASH who enrolled in the study received 50 mg doses of Compound 1 daily for a period of 28 days as described above. Hepatic fat levels in each patient were assessed prior to treatment with Compound 1, after 28 days of treatment with Compound 1, then again 28 days after cessation of treatment with Compound 1.

The subject of series [6] is alanine aminotransferase (ALT). The series is described as follows: NASH clinical trial Part 1: ALT. It counts as in vivo, human. The conditions noted are these: NASH patients, 50 mg daily. Here is the method: as §3, §4
Levels of alanine aminotransferase (ALT) and gamma-glutamyl transferase (GGT) were assessed in subjects prior to administration of Compound 1, after 14 days of dosing of Compound 1, and after 28 days of dosing of Compound 1. The resulting percent changes from baseline for these biomarkers can be seen in FIG. 6A, FIG. 6B.

The target in the next series is T1, hFXR (Homo sapiens, UniProt Q96RI1).
T1 construct: expressed in transfected cells; host or cells: CV-1 cells
T1 sequence (Q96RI1 1-486): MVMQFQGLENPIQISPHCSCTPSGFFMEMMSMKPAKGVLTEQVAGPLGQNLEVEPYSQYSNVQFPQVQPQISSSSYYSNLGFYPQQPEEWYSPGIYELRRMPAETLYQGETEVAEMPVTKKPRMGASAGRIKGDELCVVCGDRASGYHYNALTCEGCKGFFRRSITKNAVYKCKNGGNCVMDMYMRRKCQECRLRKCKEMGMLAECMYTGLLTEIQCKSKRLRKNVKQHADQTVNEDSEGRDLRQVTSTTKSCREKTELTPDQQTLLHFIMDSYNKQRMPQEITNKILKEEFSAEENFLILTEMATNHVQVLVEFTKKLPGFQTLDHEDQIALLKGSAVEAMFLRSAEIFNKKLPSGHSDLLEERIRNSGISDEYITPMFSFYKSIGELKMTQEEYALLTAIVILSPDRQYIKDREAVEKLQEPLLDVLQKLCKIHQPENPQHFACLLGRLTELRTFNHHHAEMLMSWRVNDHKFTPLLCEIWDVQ
T1 sequence (P19793 1-462 partner): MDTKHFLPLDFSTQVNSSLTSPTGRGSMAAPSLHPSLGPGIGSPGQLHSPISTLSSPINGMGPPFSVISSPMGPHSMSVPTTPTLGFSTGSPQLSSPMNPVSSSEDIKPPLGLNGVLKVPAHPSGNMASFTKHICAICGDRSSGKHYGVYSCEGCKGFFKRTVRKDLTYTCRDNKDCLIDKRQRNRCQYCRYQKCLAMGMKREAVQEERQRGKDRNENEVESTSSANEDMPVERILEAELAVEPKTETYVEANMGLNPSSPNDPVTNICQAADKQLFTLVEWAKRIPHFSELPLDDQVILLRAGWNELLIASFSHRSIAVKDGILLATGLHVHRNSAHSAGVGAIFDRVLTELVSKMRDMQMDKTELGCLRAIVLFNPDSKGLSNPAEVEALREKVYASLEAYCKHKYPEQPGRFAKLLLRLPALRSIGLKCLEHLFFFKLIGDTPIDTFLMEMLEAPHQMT
In words: In Vitro FXR Assay (TK). It counts as cell-based. The conditions noted are these: transfected CV-1 cells, luminescence, 18 hrs. Here is the method:
CV-1 cells were seeded at a density of 2,000,000 cells in a T175 flask with DMEM+10% charcoal double-stripped FBS and incubated at 37° C. in 5% CO2 for 18 h (O/N).
After 18 h of incubation, the medium in the T175 flask was changed with fresh DMEM+10% charcoal super-stripped serum. In a polypropylene tube, 2500 μL OptiMEM (Life Technologies, Cat #31985-062) was combined with expression plasmids for hFXR, hRXR, TK-ECRE-luc and pCMX-YFP. The tube was then briefly vortexed and incubated at room temperature for 5 minutes. Transfection reagent (X-tremeGENE HP from Roche, Cat #06 366 236 001) was added to the OptiMEM/plasmid mixture vortexed and incubated at room temperature for 20 minutes. Following incubation, the transfection reagent/DNA mixture complex was added to cells in the T175 flask and the cells were incubated at 37° C. in 5% CO2 for 18 h (O/N).
Compounds were serially diluted in DMSO and added to transfected CV-1 cells. The cells were then incubated for 18 hrs. The next day cells were lysed and examined for luminescence.

Series [7] concerns 7-alpha-hydroxy-4-cholesten-3-one (C4). The series is described as follows: Phase 1 MAD pharmacodynamics: plasma C4. The conditions noted are these: healthy subjects. It is filed as in vivo, human. Here is the method: as §2, §1
The subject of series [8] is SCID mice with CD4+CD45RB high T-cell transfer colitis. The series is described as follows: Adoptive T-cell transfer colitis mouse model. It is filed as in vivo. The conditions noted are these: for reduction of histopathology sum score: vehicle sum score 10. As for the experimental part:
Adoptive T-cell transfer colitis model is accepted as a relevant mouse model for human inflammatory bowel disease (IBD). To induce colitis in this model, the CD4 T-lymphocyte population is isolated from the spleens of donor mice. Subsequently, a subpopulation of CD4+CD45RB high T-cells is purified by cell sorting using flow cytometry. The purified CD4+CD45RB high T-cells are injected into the peritoneal cavity of the recipient severe combined immunodeficiency (SCID) mice. Colitis develops approximately three to six weeks after T-cell transfer, which is monitored by loss of body weight, inconsistent stool or bloody diarrhea. Testing of combinations of an FXR agonist and an additional therapeutic agent described herein is initiated at the same time of injecting purified CD4+CD45RBhigh T-cells to the recipient SCID mice. Alternatively, the combinations of an FXR agonist and an additional therapeutic agent described herein are administered two or three weeks post T-cell transfer, when colitis has already developed in the model. During the period of administering the combinations of an FXR agonist and an additional therapeutic agent described herein to mice, the therapeutic effects may be monitored by observations on body weights, stool consistency, or rectal bleeding. After euthanasia, the disease development and effects of the compounds are further quantified by measuring colon weight and length, and colon histology by H&E staining for inflammation and structural changes in mucosa, and protein and RNA expression of genes related to the disease.

For `COc1ccc([C@H]2CC[C@H](CN(c3cccc(-c4cnn(C5CC5)c4)c3)C(=O)[C@H]3CC[C@H](O)CC3)CC2)cc1C` [Compound 1], the “plasma levels at 24 hours following dosing” value in series [1] (14 days once daily oral dosing) was “high levels in the plasma at 24 hours following dosing”. For the same compound, the “plasma drug exposure with dose” value in [1] (14 days once daily oral, 20 mg to 150 mg) is on record as “increase in plasma drug exposure with dose”. Besides, the “change in bile acid levels” value in the series on total bile acids is “decrease in bile acid levels”. The compound further gave a GGT levels decrease in [2] of 23.2%. Further, the “GGT decrease from baseline” value in [2] (day 28) came out at 36.3%. In [3], the “mean FGF19 levels” value is “increased” and the “time of maximum increase in mean FGF19 levels” value lay in the range of 6 to 10 hours post dose. The “plasma levels over the 24 hour period after dosing” value in series [4] is reported as “remained nearly constant”. For the same compound, the “average reduction in fatty liver deposits from baseline” value in series [5] came to 20.3%. For the same compound, the “ALT decrease from baseline” value in series [6] (day 14) worked out at 7.9%. The ALT below baseline in [6] (day 28) is 16.5%. In addition, the EC50 on hFXR is no more than 250 nM. Further, in series [7] (Day 14), the “dose at which the decrease in C4 levels was notable” value is given as no less than 50 mg and the “mean C4 levels at 24 hours post dose” value is “remained decreased”. Also, the “mean C4 levels versus placebo” value in [7] (multiple doses 20 mg to 150 mg, Day 14, most dose levels) is listed as “lower than for placebo treatment”.

Regarding `COc1ncc(-c2cccc(N(C[C@H]3CC[C@H](c4ccc(OC)c(C)c4)CC3)C(=O)[C@H]3CC[C@H](O)CC3)c2)s1` [Compound 2, (1R,4R)-4-hydroxy-N-(((1R,4R)-4-(4-methoxy-3-methylphenyl)cyclohexyl)methyl)-N-(3-(2-methoxythiazol-5-yl)phenyl)cyclohexane-1-carboxamide], in [8] (10 mg/kg), the “reduction in colon W/L as compared to vehicle” value came to 41% and the “reduction of histopathology sum score” value is 71%. For the same compound, in [8] (30 mg/kg), the “reduction in colon W/L as compared to vehicle” value was found to be 38% and the “reduction of histopathology sum score” value is 74%. Further, the “reduction in body weight from baseline caused by T-cell transfer” value in [8] (12% body weight reduction after CD4+CD45RBhi T-cell transfer, Compound 2 at 10 mg/kg) was “reversed”. Moreover, in series [8] (adoptive T-cell transfer model), the “efficacy in reducing colitis relative to comparators” value was “efficacy superior to CsA and comparable to anti-IL-12/23 treatment”.

Values taken from US20220323414A1, “FARNESOID X RECEPTOR AGONISTS FOR THE TREATMENT OF DISEASE” (Metacrine, Inc., priority 2018, published 2022).
